Test results as given in patent US6512102B1, “Compositions and methods of diagnosis and treatment using casein kinase I” (Chiron Corporation, priority 1998, dated 2003).

System: Lef-1 dependent transcription
Assay: Lef-1 enhancer luciferase reporter assay in Cos cells
Type: cell-based
Settings: GSK3 over-expressed / cotransfected
Procedure: Combinations of Wnt-1, CKIε, CKI kinase dead variant (lys→arg 38) and Lef-1 were transfected into Cos cells with a luciferase gene driven by multiple copies of Lef enhancer elements. As an internal control of transfection efficiency, the β-galactosidase gene driven by the SV40 promoter was co-transfected in all samples. 24 hours after transfection, cells were lysed and the lysate was tested for luciferase activity. The luciferase activity was normalized with respect to β-galactosidase activity. […] Dorsoanterior index (DAI) grade numbers were assigned to the phenotypes of the embryos. A grade 5 embryo is normal; a grade 3 embryo is cyclopic (one eye); a grade 1 embryo has a tail fin and somites but no head (acephalic); and a grade 0 embryo has no dorsoanterior structures (Kao et al., 1988).
The effect of CKI on Lef-1 dependent transcription in Cos mammalian cells was examined. A luciferase reporter gene driven by multiple copies of the Lef-I enhancer sequence was used. When only Wnt-I or lef-I or CKIε was transfected with the reporter construct, luciferase activity was induced only 2 to 3 fold (FIG. 1A). When Lef-1 was cotransfected with either Wnt-1 or CKIε, luciferase activity was induced 30 or 12 fold respectively.
Luciferase reporter plasmid contains multiple Lef-I enhancer sites upstream of the fos basal promoter. […]

For “GSK3: GSK3 over-expressed from cotransfected plasmid [reference compound]”, the “luciferase activity transduced by CKIε” value was “inhibited the effect of CKI in promoting transcription”.
